The test system of assay [1] is mushroom tyrosinase (polyphenol oxidase). Briefly: Polymer production in enzymatic tyrosinase (polyphenol oxidase) reaction. Type of assay: biochemical. Details: key: +++: Reacted within about 1 hour; ++: reacted within about 3 hours; +: reacted within about 24 hours; +/−: inconclusive results; −: no reaction. How it is done: All reactions were carried out in approximately 50 mM potassium phosphate buffer, pH 6.5 with approximately 5 mM substrate and mushroom tyrosinase (polyphenol oxidase) Sigma T3824 in an amount of 100 to 10,000 units. Reaction volumes varied from 200 μl to 2 ml. In cases where substrates were not completely solubilized, then a saturated solution was used as the limit of solubility. In some cases, a solution of DMSO was used to increase solubility of the substrates. […] The reactions were observed over a 24 hour period for the production of polymers, and the presence and color of polymer and solution was recorded.
The production of polymers in each reaction was visible as a precipitate in the well of a 96 well plate or in the reaction mixture on a glass slide.

In assay [2] the test system is mushroom tyrosinase (phenyl oxidase). Briefly: Substituted substrates for phenol oxidases: polymer formation with mushroom tyrosinase. Type of assay: biochemical. The note with it: 5 mM potassium phosphate buffer, 200 Units tyrosinase, up to 3 hours. The protocol:
6-hydroxyindole, 6-hydroxyindole-3-carboxaldehyde, 1,2-dihydroxybenzene (catechol), 2,3-dihydroxybenzaldehyde, and 3,4-dihydroxybenezaldehyde were used as substrates for phenol oxidases.
6-hydroxyindole, 6-hydroxyindole-3-carboxaldehyde, 1,2-dihydroxybenzene (catechol), 2,3-dihydroxybenzaldehyde, and 3,4-dihydroxybenezaldehyde were dissolved in water at a concentration of 0.03 g/ml. Ten microliters of each was diluted into 90 microliter of 5 mM potassium phosphate buffer and 2 μl of mushroom tyrosinase (phenyl oxidase, 200 Units) was added. The reactions were allowed to proceed for up to 3 hours. […] Buffer alone with no substrates were used as controls and were negative for polymer formation.

Where [3] appears, read: as above, substrate (or marked component) dissolved in 20% DMSO.
Where [4] appears, read: approx. 50 mM potassium phosphate buffer pH 6.5, approx. 5 mM substrate, observed over 24 hour period.

Counter-ions that a name gives are not always drawn.

In the case of `CC1=NCCc2c1[nH]c1cc(O)ccc21` [Harmalol HCl dehydrate], in assay [1] (setting [3]), the “Result (polymer production in tyrosinase reaction)” value (from here on “Result”) is “−”.

In the case of `O=Cc1ccc(O)c(O)c1` [3,4-dihydroxybenezaldehyde], the “Polymer formation with mushroom tyrosinase” value (from here on “Polymer formation”) in assay [2] is given as “Polymers were formed”.

For the molecule `Oc1ccc2cc(O)ccc2c1` [2,6 dihydroxnaphthalene], the “Result” value in assay [1] (setting [4]) is given as “+ (reacted within about 24 hours)”.

Regarding `CN[C@@H](Cc1ccc(O)cc1)C(=O)O` [N-methyl tyrosine], the “Result” value in assay [1] (setting [4]) was “++ (reacted within about 3 hours)”.

`Oc1ccc2c(c1)[nH]c1ccccc12` [2 Hydroxy carbazole]: the “Result” value in assay [1] (setting [3]) was “−”.

Take `Cl.NCCc1ccccc1` [Beta phenylethylamine HCL]: the “Result” value in assay [1] (setting [4]) is “+/−”.

Consider `O=Cc1cccc(O)c1O` [2,3-dihydroxybenzaldehyde], for which the “Polymer formation” value in assay [2] is given as “Polymers were formed”.

In the case of `Oc1ccc2[nH]ccc2c1` [5-hydroxyindole], in assay [1] (setting [4]), the “Result” value is on record as “+++ (Reacted within about 1 hour)”.

As to `Cl.NCCc1ccc(O)cc1` [Tyramine HCl], the “Result” value in assay [1] (setting [4]) was “+++ (Reacted within about 1 hour)”.

Consider `Oc1ccccc1O` [1,2-dihydroxybenzene (catechol), 1,2-dihydroxybenzene], for which the “Polymer formation” value in assay [2] is recorded as “Polymers were formed”.

`Oc1ccc2cc[nH]c2c1` [6 Hydroxyindole]: the “Result” value in assay [1] (setting [4]) is “++ (reacted within about 3 hours)”. Also, the “Polymer formation” value in assay [2] is reported as “Polymers were formed”.

On to `N[C@@H](Cc1ccc(O)cc1)C(=O)O` [Tyrosine], for which the “Result” value in assay [1] (setting [4]) was “++ (reacted within about 3 hours)”.

Consider `c1ccc2[nH]ccc2c1` [Indole], for which the “Result” value in assay [1] (setting [4]) is “−”.

With `NCCc1ccc(O)cc1` [Tyramine], in assay [1] (setting [4]), the “Result” value is on record as “+++ (Reacted within about 1 hour)”.

With `Oc1ccc(-c2cc(-c3ccc(O)cc3)cc(-c3ccc(O)cc3)c2)cc1` [1,3,5 Tris(4hydroxyphenyl)benzene], in assay [1] (setting [3]), the “Result” value is recorded as “+ (reacted within about 24 hours)”.

With `O=Cc1c[nH]c2cc(O)ccc12` [6-hydroxyindole-3-carboxaldehyde], in assay [2], the “Polymer formation” value was “Polymers were formed”.
